According to PubChem BioAssay AID2060605 (Molecular Pharmacology Branch, DTP, NCI, 2025):

System: 947758-054-R-J2-PDC spheroid growth, percent test/control
Experiment: Anticancer human tumor 947758-054-R-J2-PDC patient-derived colon adenocarcinoma cell line growth inhibition [CLK]
Settings: spheroids with HUVEC and MSC; for IC50: curve of first compound; for viability, T/C: stronger effect = lower value
Method in brief: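 Patient-derived tumor cells grown as complex spheroids with HUVEC endothelial cells and mesenchymal stem cells, treated with drug combinations. Concentrations descend in half-log steps from near clinical Cmax, or from 10 microM if Cmax unknown.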
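Also: spheroids exposed to compounds for one week before readout.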
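For viability, T/C in this document: 100% = DMSO vehicle control wells.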

For `C#Cc1c(F)ccc2cc(O)cc(-c3ncc4c(N5CC6CCC(C5)N6)nc(OCC56CCCN5CC(F)C6)nc4c3F)c12` (centres undefined) + CN1CCN(c2cc(C(=O)Nc3cc4cc(-c5cnn(C)c5)ccc4cn3)ccn2)CC1, the IC50 (second compound 0.0316 µM) was > 10000 nM, the IC50 (second compound 0.1 µM) was > 10000 nM and the IC50 (second compound 0.316 µM) was < 31.6 nM. The IC50 (second compound 1 µM) was < 31.6 nM, the IC50 (second compound 3.16 µM) was < 31.6 nM and the IC50 (second compound 10 µM) was < 31.6 nM. For the same compound, the viability, T/C (second compound 0.0316 µM, first compound 0.0316 µM) was 103%, the viability, T/C (second compound 0.0316 µM, first compound 0.1 µM) was 123% and the viability, T/C (second compound 0.0316 µM, first compound 0.316 µM) was 126%. The viability, T/C (second compound 0.0316 µM, first compound 1 µM) was 73.3%, the viability, T/C (second compound 0.0316 µM, first compound 3.16 µM) was 107% and the viability, T/C (second compound 0.0316 µM, first compound 10 µM) was 118%. For the same compound, the viability, T/C (second compound 0.1 µM, first compound 0.0316 µM) was 145%, the viability, T/C (second compound 0.1 µM, first compound 0.1 µM) was 214% and the viability, T/C (second compound 0.1 µM, first compound 0.316 µM) was 187%. It also gave a viability, T/C (second compound 0.1 µM, first compound 1 µM) of 214%, a viability, T/C (second compound 0.1 µM, first compound 3.16 µM) of 216% and a viability, T/C (second compound 0.1 µM, first compound 10 µM) of 148%. For the same compound, the viability, T/C (second compound 0.316 µM, first compound 0.0316 µM) was 5.41%, the viability, T/C (second compound 0.316 µM, first compound 0.1 µM) was 7.64% and the viability, T/C (second compound 0.316 µM, first compound 0.316 µM) was 7.09%. The viability, T/C (second compound 0.316 µM, first compound 1 µM) was 6.71%, the viability, T/C (second compound 0.316 µM, first compound 3.16 µM) was 6% and the viability, T/C (second compound 0.316 µM, first compound 10 µM) was 5.97%. The viability, T/C (second compound 1 µM, first compound 0.0316 µM) was 0.17%, the viability, T/C (second compound 1 µM, first compound 0.1 µM) was 0.21% and the viability, T/C (second compound 1 µM, first compound 0.316 µM) was 0.18%. For the same compound, the viability, T/C (second compound 1 µM, first compound 1 µM) was 0.22%, the viability, T/C (second compound 1 µM, first compound 3.16 µM) was 0.19% and the viability, T/C (second compound 1 µM, first compound 10 µM) was 0.21%. It also gave a viability, T/C (second compound 3.16 µM, first compound 0.0316 µM) of 0.19%, a viability, T/C (second compound 3.16 µM, first compound 0.1 µM) of 0.24% and a viability, T/C (second compound 3.16 µM, first compound 0.316 µM) of 0.24%. The viability, T/C (second compound 3.16 µM, first compound 1 µM) was 0.2%, the viability, T/C (second compound 3.16 µM, first compound 3.16 µM) was 0.23% and the viability, T/C (second compound 3.16 µM, first compound 10 µM) was 0.67%. For the same compound, the viability, T/C (second compound 10 µM, first compound 0.0316 µM) was 0.38%, the viability, T/C (second compound 10 µM, first compound 0.1 µM) was 0.42% and the viability, T/C (second compound 10 µM, first compound 0.316 µM) was 0.33%. It also gave a viability, T/C (second compound 10 µM, first compound 1 µM) of 0.37%, a viability, T/C (second compound 10 µM, first compound 3.16 µM) of 0.37% and a viability, T/C (second compound 10 µM, first compound 10 µM) of 0.26%.

Work on `CC(C)CC(NC(=O)C(Cc1ccccc1)NC(=O)c1cnccn1)B(O)O` (centres undefined) + CNC(=O)c1ccc(Nc2nc(OC3CCCC3)c3c(-c4ccc5nc(C)oc5c4)c[nH]c3n2)c(OC)c1 yielded an IC50 (second compound 0.0316 µM) of 1.85 nM, an IC50 (second compound 0.1 µM) of 1.66 nM and an IC50 (second compound 0.316 µM) of 1.72 nM. For the same compound, the IC50 (second compound 1 µM) was 1.42 nM, the IC50 (second compound 3.16 µM) was < 0.949 nM and the IC50 (second compound 10 µM) was < 0.949 nM. The viability, T/C (second compound 0.0316 µM, first compound 0.000949 µM) was 117%, the viability, T/C (second compound 0.0316 µM, first compound 0.003 µM) was 1.15% and the viability, T/C (second compound 0.0316 µM, first compound 0.00949 µM) was 0.26%. The viability, T/C (second compound 0.0316 µM, first compound 0.03 µM) was 0.29%, the viability, T/C (second compound 0.0316 µM, first compound 0.0949 µM) was 0.3% and the viability, T/C (second compound 0.0316 µM, first compound 0.3 µM) was 0.28%. The viability, T/C (second compound 0.1 µM, first compound 0.000949 µM) was 89%, the viability, T/C (second compound 0.1 µM, first compound 0.003 µM) was 8.66% and the viability, T/C (second compound 0.1 µM, first compound 0.00949 µM) was 0.26%. It also gave a viability, T/C (second compound 0.1 µM, first compound 0.03 µM) of 0.27%, a viability, T/C (second compound 0.1 µM, first compound 0.0949 µM) of 0.25% and a viability, T/C (second compound 0.1 µM, first compound 0.3 µM) of 1.66%. For the same compound, the viability, T/C (second compound 0.316 µM, first compound 0.000949 µM) was 102%, the viability, T/C (second compound 0.316 µM, first compound 0.003 µM) was 1.44% and the viability, T/C (second compound 0.316 µM, first compound 0.00949 µM) was 0.22%. It also gave a viability, T/C (second compound 0.316 µM, first compound 0.03 µM) of 0.22%, a viability, T/C (second compound 0.316 µM, first compound 0.0949 µM) of 0.25% and a viability, T/C (second compound 0.316 µM, first compound 0.3 µM) of 0.23%. For the same compound, the viability, T/C (second compound 1 µM, first compound 0.000949 µM) was 75.7%, the viability, T/C (second compound 1 µM, first compound 0.003 µM) was 2.99% and the viability, T/C (second compound 1 µM, first compound 0.00949 µM) was 0.32%. For the same compound, the viability, T/C (second compound 1 µM, first compound 0.03 µM) was 0.21%, the viability, T/C (second compound 1 µM, first compound 0.0949 µM) was 0.26% and the viability, T/C (second compound 1 µM, first compound 0.3 µM) was 0.46%. For the same compound, the viability, T/C (second compound 3.16 µM, first compound 0.000949 µM) was 45.1%, the viability, T/C (second compound 3.16 µM, first compound 0.003 µM) was 0.43% and the viability, T/C (second compound 3.16 µM, first compound 0.00949 µM) was 0.21%. For the same compound, the viability, T/C (second compound 3.16 µM, first compound 0.03 µM) was 0.19%, the viability, T/C (second compound 3.16 µM, first compound 0.0949 µM) was 0.21% and the viability, T/C (second compound 3.16 µM, first compound 0.3 µM) was 0.24%. It also gave a viability, T/C (second compound 10 µM, first compound 0.000949 µM) of 38.8%, a viability, T/C (second compound 10 µM, first compound 0.003 µM) of 0.32% and a viability, T/C (second compound 10 µM, first compound 0.00949 µM) of 0.21%. The viability, T/C (second compound 10 µM, first compound 0.03 µM) was 0.2%, the viability, T/C (second compound 10 µM, first compound 0.0949 µM) was 0.23% and the viability, T/C (second compound 10 µM, first compound 0.3 µM) was 0.35%.
